Assay results reported in PubChem BioAssay AID1259411 (Chemical Carcinogenesis Research Information System (CCRIS), 2018).
The source made the active and inactive calls. No rule for the calls is given here.

Tested on: rodent carcinogenicity bioassays, tumor incidence
Assay: CCRIS carcinogenicity studies
Method in brief: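 Archive of carcinogenicity, mutagenicity, tumor promotion and tumor inhibition results drawn from journals, NCI reports and other sources, expert-reviewed; covers 1985-2011 and is no longer updated.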

[1] = Species: MOUSE, Strain/Sex: CD-1/FEMALE, Route: DERMAL, Dose: 0, 50 UMOL/0.1 ML DMSO 2/WK FOR 5 WK FOLLOWED 1 WK LATER BY 0.1 ML ACETONE 2/WK FOR 47 WK (STUDY DURATION: 52 WK)

SMILES: FC(F)Cl
- carcinogen call (Species: MOUSE, Strain/Sex: SWISS/FEMALE, Route: INHALATION, Dose: 0, 1000, 5000 PPM 4 HR/D 5 D/WK FOR 78 WK (STUDY DURATION: LIFETIME), Dose: 0, 1000, 5000 PPM 4 HR/D 5 D/WK FOR 78 WK (STUDY DURATION: LIFETIME)): inactive; negative
- carcinogen call (Species: MOUSE, Strain/Sex: SWISS/MALE, Route: INHALATION, Dose: 0, 1000, 5000 PPM 4 HR/D 5 D/WK FOR 78 WK (STUDY DURATION: LIFETIME), Dose: 0, 1000, 5000 PPM 4 HR/D 5 D/WK FOR 78 WK (STUDY DURATION: LIFETIME)): inactive; negative
- carcinogen call (Species: RAT, Strain/Sex: SPRAGUE-DAWLEY/FEMALE, Route: INHALATION, Dose: 0, 1000, 5000 PPM 4 HR/D 5 D/WK FOR 104 WK (STUDY DURATION: LIFETIME), Dose: 0, 1000, 5000 PPM 4 HR/D 5 D/WK FOR 104 WK (STUDY DURATION: LIFETIME)): inactive; negative
- carcinogen call (Species: RAT, Strain/Sex: SPRAGUE-DAWLEY/FEMALE, Route: INHALATION, Dose: 0, 1000, 5000 PPM IN AIR 4 HR/D 5 D/WK FOR 104 WK (STUDY DURATION: LIFETIME), Dose: 0, 1000, 5000 PPM IN AIR 4 HR/D 5 D/WK FOR 104 WK (STUDY DURATION: LIFETIME), Tumor Site: Type of Lesion: [BRAIN WAS ONLY SITE EVALUATED]): inactive; negative
- carcinogen call (Species: RAT, Strain/Sex: SPRAGUE-DAWLEY/MALE, Route: INHALATION, Dose: 0, 1000, 5000 PPM 4 HR/D 5 D/WK FOR 104 WK (STUDY DURATION: LIFETIME), Dose: 0, 1000, 5000 PPM 4 HR/D 5 D/WK FOR 104 WK (STUDY DURATION: LIFETIME)): inactive; negative
- carcinogen call (Species: RAT, Strain/Sex: SPRAGUE-DAWLEY/MALE, Route: INHALATION, Dose: 0, 1000, 5000 PPM IN AIR 4 HR/D 5 D/WK FOR 104 WK (STUDY DURATION: LIFETIME), Dose: 0, 1000, 5000 PPM IN AIR 4 HR/D 5 D/WK FOR 104 WK (STUDY DURATION: LIFETIME), Tumor Site: Type of Lesion: [BRAIN WAS ONLY SITE EVALUATED]): inactive; negative

SMILES: Cn1c([N+](=O)[O-])cnc1C1=NOC2CCCCC12 (stereo not drawn)
- carcinogen call (Species: MOUSE, Strain/Sex: SWISS/FEMALE, Route: INTRAPERITONEAL, Dose: 0, 80 UG/G BW 1/D FOR 30 DAYS (STUDY DURATION: LIFETIME), Tumor Site: Type of Lesion: LYMPHATIC SYSTEM: LYMPHOMA): active; positive

SMILES: c1ccc2c(c1)ccc1cccnc12
- carcinogen call (Species: RAT, Strain/Sex: SPRAGUE-DAWLEY/FEMALE, Route: SUBCUTANEOUS, Dose: 0, 200 UMOL/KG IN DMSO INTO SUPRASCAPULAR AREA ON DAY 1 OF LIFE FOLLOWED BY 0, 100 UMOL 1/WK AT WK 2-7 THEN O, 200 UMOL/, Dose: 0, 200 UMOL/KG IN DMSO INTO SUPRASCAPULAR AREA ON DAY 1 OF LIFE FOLLOWED BY 0, 100 UMOL 1/WK AT WK 2-7 THEN O, 200 UMOL/): inactive; negative
- carcinogen call (Species: RAT, Strain/Sex: SPRAGUE-DAWLEY/MALE, Route: SUBCUTANEOUS, Dose: 0, 200 UMOL/KG IN DMSO INTO SUPRASCAPULAR AREA ON DAY 1 OF LIFE FOLLOWED BY 0, 100 UMOL 1/WK AT WK 2-7 THEN O, 200 UMOL/, Dose: 0, 200 UMOL/KG IN DMSO INTO SUPRASCAPULAR AREA ON DAY 1 OF LIFE FOLLOWED BY 0, 100 UMOL 1/WK AT WK 2-7 THEN O, 200 UMOL/): inactive; negative

SMILES: O=C1CCc2ccccc2O1
- carcinogen call (Species: MOUSE, Strain/Sex: B6C3F1/FEMALE, Route: GAVAGE, Dose: 0, 200, 400, 800 MG/KG IN CORN OIL 1/D 5 D/WK FOR 103 WK (STUDY DURATION: 103 WK), Dose: 0, 200, 400, 800 MG/KG IN CORN OIL 1/D 5 D/WK FOR 103 WK (STUDY DURATION: 103 WK), Tumor Site: Type of Lesion: LIVER: HEPATOCELLULAR ADENOMA, HEPATOCELLULAR ADENOMA OR CARCINOMA): active; positive
- carcinogen call (Species: MOUSE, Strain/Sex: B6C3F1/MALE, Route: GAVAGE, Dose: 0, 200, 400, 800 MG/KG IN CORN OIL 1/D 5 D/WK FOR 103 WK (STUDY DURATION: 103 WK), Dose: 0, 200, 400, 800 MG/KG IN CORN OIL 1/D 5 D/WK FOR 103 WK (STUDY DURATION: 103 WK)): inactive; negative
- carcinogen call (Species: RAT, Strain/Sex: F344/FEMALE, Route: GAVAGE, Dose: 0, 150, 300, 600 MG/KG IN CORN OIL 1/D 5 D/WK FOR 103 WK (STUDY DURATION: 103 WK), Dose: 0, 150, 300, 600 MG/KG IN CORN OIL 1/D 5 D/WK FOR 103 WK (STUDY DURATION: 103 WK)): inactive; negative
- carcinogen call (Species: RAT, Strain/Sex: F344/MALE, Route: GAVAGE, Dose: 0, 150, 300, 600 MG/KG IN CORN OIL 1/D 5 D/WK FOR 103 WK (STUDY DURATION: 103 WK), Dose: 0, 150, 300, 600 MG/KG IN CORN OIL 1/D 5 D/WK FOR 103 WK (STUDY DURATION: 103 WK), Tumor Site: Type of Lesion: KIDNEY (RENAL TUBULE): ADENOMA): active; positive

SMILES: O=Cc1ccc(CO)o1
- carcinogen call (Species: MOUSE, Strain/Sex: B6C3F1/MALE, Route: INTRAPERITONEAL, Dose: 0, 0.25, 1 UMOL/G BW IN 5 µL DMSO/G BW ONCE, Dose: 0, 0.25, 1 UMOL/G BW IN 5 µL DMSO/G BW ONCE): inactive; negative
- carcinogen call [1]: inactive; negative
- carcinogen call (Species: Mouse, Strain/Sex: B6C3F1/ Female (50/Group), Route: Oral, Dose: 0, 188, 375, 750 mg/kg by gavage in deionized water for 2 yr, Dose: 0, 188, 375, 750 mg/kg by gavage in deionized water for 2 yr, Tumor Site: Type of Lesion: Liver: hepatocellular adenoma (14/50, 26/49, 26/50, 6/50)): inactive; negative (ntp reports as some evidence based on increased incidences of hepatoce
- carcinogen call (Species: Mouse, Strain/Sex: B6C3F1/ Male (50/Group), Route: Oral, Dose: 0, 188, 375, 750 mg/kg by gavage in deionized water for 2 yr, Dose: 0, 188, 375, 750 mg/kg by gavage in deionized water for 2 yr): inactive; negative
- carcinogen call (Species: Rat, Strain/Sex: F344/N / Female (50/Group), Route: Oral, Dose: 0, 188, 375, 750 mg/kg by gavage in deionized water for 2 yr, Dose: 0, 188, 375, 750 mg/kg by gavage in deionized water for 2 yr): inactive; negative
- carcinogen call (Species: Rat, Strain/Sex: F344/N / Male (50/Group), Route: Oral, Dose: 0, 188, 375, 750 mg/kg by gavage in deionized water for 2 yr, Dose: 0, 188, 375, 750 mg/kg by gavage in deionized water for 2 yr): inactive; negative

SMILES: O=CNC(N1CCOCC1)C(Cl)(Cl)Cl (stereo not drawn)
- carcinogen call (Species: RAT, Strain/Sex: WISTAR/FEMALE, Route: ORAL, Dose: 0, 67, 330, 665 MG/KG IN DIET LESS THAN 2 YR (STUDY DURATION: LESS THAN 2 YR), Dose: 0, 67, 330, 665 MG/KG IN DIET LESS THAN 2 YR (STUDY DURATION: LESS THAN 2 YR)): inactive; negative
- carcinogen call (Species: RAT, Strain/Sex: WISTAR/MALE, Route: ORAL, Dose: 0, 67, 330, 665 MG/KG IN DIET LESS THAN 2 YR (STUDY DURATION: LESS THAN 2 YR), Dose: 0, 67, 330, 665 MG/KG IN DIET LESS THAN 2 YR (STUDY DURATION: LESS THAN 2 YR)): inactive; negative

SMILES: CC(=O)C=O
- carcinogen call [1]: inactive; negative

SMILES: CC(C)(C)NC[C@H](O)COc1cccc2c1CCCC2=O
- carcinogen call (Species: MOUSE, Strain/Sex: SWISS/MALE, Route: ORAL, Dose: 0, 12, 50, 200 MG/KG/D IN DIET FOR 80 WK (STUDY DURATION: 80 WK), Dose: 0, 12, 50, 200 MG/KG/D IN DIET FOR 80 WK (STUDY DURATION: 80 WK)): inactive; negative
- carcinogen call (Species: RAT, Strain/Sex: WISTAR/FEMALE, Route: ORAL, Dose: 0, 0.5, 2, 5 MG/KG/D IN DIET FOR 2 YR (STUDY DURATION: 2 YR), Dose: 0, 0.5, 2, 5 MG/KG/D IN DIET FOR 2 YR (STUDY DURATION: 2 YR)): inactive; negative
- carcinogen call (Species: RAT, Strain/Sex: WISTAR/FEMALE, Route: ORAL, Dose: 0, 5, 30, 180 MG/KG/D IN DIET FOR 2 YR (STUDY DURATION: 2 YR), Dose: 0, 5, 30, 180 MG/KG/D IN DIET FOR 2 YR (STUDY DURATION: 2 YR)): inactive; negative
- carcinogen call (Species: RAT, Strain/Sex: WISTAR/MALE, Route: ORAL, Dose: 0, 0.5, 2, 5 MG/KG/D IN DIET FOR 2 YR (STUDY DURATION: 2 YR), Dose: 0, 0.5, 2, 5 MG/KG/D IN DIET FOR 2 YR (STUDY DURATION: 2 YR)): inactive; negative
- carcinogen call (Species: RAT, Strain/Sex: WISTAR/MALE, Route: ORAL, Dose: 0, 5, 30, 180 MG/KG/D IN DIET FOR 2 YR (STUDY DURATION: 2 YR), Dose: 0, 5, 30, 180 MG/KG/D IN DIET FOR 2 YR (STUDY DURATION: 2 YR), Tumor Site: Type of Lesion: LIVER: HEPATOMA): active; positive

SMILES: O=C1O[C@@H](CN2CCOCC2)CN1N=Cc1ccc([N+](=O)[O-])o1
- carcinogen call (Species: RAT, Route: ORAL, Tumor Site: Type of Lesion: LYMPHATIC SYSTEM: LYMPHOBLASTIC LYMPHOMA, MAMMARY GLAND): active; positive
